Source: patent US20040259865A1, “Pyrimidone compounds and pharmaceutical compositions containing the same” (priority 2001, published 2004)
Where “and” joins values, the source holds several entries; their conditions need not be identical. Identical values can stand only once.

Columns and labels:
[1] = Urine volume / diuretic action in rat (Test Example 2); format: in vivo; details: for Urine Volume (g/100 g body weight): 180 minutes
Description: (§1) SD IGS rats (6-weeks-old, from Charles River) were placed in cages (3 animals/cage) and preliminarily allowed food and water ad libitum and raised for 1 week. On the day of the experiment, their weight was measured, a water-absorbing sheet was placed below each cage, and the animals were fasted but allowed water ad libitum throughout the experiment. Three hours after fasting was initiated, the fecal pellets were recovered from each cage and observed for abnormality before the experiment, and then the compound suspended or dissolved in 0.5% (W/V) methyl cellulose (MC) was orally administered into each rat in a dose of 5 ml/kg. On one hand, 0.5% (W/V) MC only was orally given to the control group. After administering the compound, the rats were returned to the cage provided with anew water-absorbing sheet of known weight, and 180 minutes after the administration, the fecal pellets on the water-absorbing sheet were recovered from each cage, and the external appearance was observed, and the number of fecal pellets was counted. The number of fecal pellets is expressed per each cage (Table 4). After the fecal pellets were recovered, the water-absorbing sheet was weighed, and the weight determined by subtracting the initial weight of the water-adsorbing sheet from the weight after the experiment was regarded as the volume of urine and expressed as the volume of urine per 100 g of the body weight (Table 4).

[2] = test system: SD IGS rats; assay: Evaluation of defecation-promoting action (Tables 8 and 10); format: in vivo, rat; details: 3 mg/kg oral; Table 8, n = 4 cages/group
Text: For example, the defecation-promoting actions of 8-phenyltheophylline (“8-PT” in the table below) and 5-[6-amino-8-(3-fluorophenyl)-9H-9-purinyl]-1-methyl-1,2-di hydro-2-pyridinone (Compound II in the table below) disclosed in Example Number 5 described in WO 2001/2400 were as shown below. 8-PT can be easily produced according to the description of Drug Development Research 47: 45-53 (1999), or is easily available as a commercial product (in this test, it was purchased from Sigma).
That is, SD IGS rats (6- to 7-weeks-old, from Charles River) were placed in cages (3 animals/cage) and preliminarily allowed food and water ad libitum and raised for 1 week. On the day of the experiment, their weight was measured, a water-absorbing sheet was placed below each cage, and the animals were fasted but allowed water ad libitum throughout the experiment. Thee hours after fasting was initiated, the fecal pellets were recovered from each cage and observed for abnormality before the experiment, and then the compound suspended in 0.5% (w/v) methyl cellulose (MC) was orally administered in a dose of 5 ml/kg. On one hand, 0.5% (w/v) MC only was orally given to the control group. After administration of the compound, the rats were returned to the cage provided with a new water-absorbing sheet, and 180 minutes after the administration, the fecal pellets on the water-absorbing sheet were recovered from each cage, and the external appearance was observed, and the number of fecal pellets was counted. The number of fecal pellets is expressed per each cage.

[3] = biological target: T1, human adenosine A1 receptor (Homo sapiens, UniProt P30542); assay: Ability to bind to adenosine A1 receptor (3H-CCPA); format: binding; details: CHOK1 membranes, Cheng-Prusoff
T1 sequence (P30542 1-326): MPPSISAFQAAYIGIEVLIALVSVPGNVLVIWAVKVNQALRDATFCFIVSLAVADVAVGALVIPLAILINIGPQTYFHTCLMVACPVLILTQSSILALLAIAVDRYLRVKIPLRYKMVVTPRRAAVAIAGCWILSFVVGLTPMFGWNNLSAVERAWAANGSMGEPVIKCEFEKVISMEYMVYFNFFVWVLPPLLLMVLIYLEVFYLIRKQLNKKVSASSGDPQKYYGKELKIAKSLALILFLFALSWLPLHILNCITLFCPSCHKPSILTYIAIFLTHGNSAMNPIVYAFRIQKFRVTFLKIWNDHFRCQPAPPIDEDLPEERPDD
Description: To 0.45 ml of this membrane sample suspension were added 0.025 ml of 60 nM tritium-labeled chlorocyclopentyl adenosine (3H-CCPA, from NEN Ltd.) and 0.025 ml test compound. This mixture was left at 30° C. for 120 minutes, filtered rapidly under suction through a glass fiber filter (GF/B, from Whatman), and immediately washed twice with 5 ml of 50 mM water-cooled Tris-HCl buffer. Thereafter, the glass fiber filter was transferred to a vial, a scintillator was added thereto, and the radioactivity on the filter was measured by a liquid scintillation counter.
Inhibition (%)=[1−{binding in the presence of the test compound-non-specific binding)/(total binding-non-specific binding)}]×100
In the above formula, the total binding means ^3H—CCPA-bound radioactivity in the absence of the test compound; the non-specific binding means ^3H-CCPA-bound radioactivity in the presence of 100 μM RPIA ([R]-[1-methyl-2-phenylethyl]adenosine); and the binding in the presence of the test compound means ^3H-CCPA-bound radioactivity in the […] of the test compound at predetermined concentrations. The inhibition constant (Ki value) in the table was determined from the formula of Cheng-Prusoff.

[4] = biological target: T2, human adenosine A2b receptor (Homo sapiens, UniProt P29275); assay: Inhibition of NECA-stimulated production of cAMP in adenosine A2b receptor-expressing cells; format: cell-based
T2 construct: expressed in transfected cells; host or cells: CHOK1 cells
T2 sequence (P29275 1-332): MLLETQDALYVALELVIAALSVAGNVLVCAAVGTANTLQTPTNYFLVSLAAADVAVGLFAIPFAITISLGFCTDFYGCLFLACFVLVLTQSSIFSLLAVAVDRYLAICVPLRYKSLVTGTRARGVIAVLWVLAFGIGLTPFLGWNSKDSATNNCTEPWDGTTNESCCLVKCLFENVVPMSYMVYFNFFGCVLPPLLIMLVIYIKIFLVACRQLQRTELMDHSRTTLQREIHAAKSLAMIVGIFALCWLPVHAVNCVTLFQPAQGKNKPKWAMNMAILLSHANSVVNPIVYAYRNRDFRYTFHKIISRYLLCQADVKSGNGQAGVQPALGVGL
Description: CHOK1 cells where a human adenosine A2b receptor had been expressed in excess were plated onto a 24-well plate at a density of 1.5×10^5 cells/well, cultured overnight, and used in the experiment. […] That is, the adhering cells were washed twice with 2 ml/well Krebs-Ringer buffer solution (containing 0.1% BSA; pH 7.4) and pre-incubated for 30 minutes in a volume of 0.5 ml/well. […] After pre-incubation for 15 minutes, the reaction was terminated with 0.1 N HCl in a volume of 300 μl/well. Measurement of intracellular cAMP was carried out using a cAMP enzyme immunoassay kit produced by Amersham.

[5] = test system: SD IGS rats; assay: Defecation-promoting action in rat (Test Example 2); format: in vivo; details: for The number of fecalpellets/3 rats: 180 minutes after administration; for Defecation-promoting action (in words): Table 4
Description: as §1

[6] = test system: SD IGS rats; assay: Contribution of A2b inhibition to defecation-promoting action (Test Example 3); format: in vivo, rat; details: 180 minutes
Description: as §1
After administering the compounds, the rats were returned to the cage under which a new water-absorbing sheet had been installed, and after 180 minutes, the fecal pellets on the water-absorbing sheet were recovered from each cage, and the outward appearance was observed and the number of fecal pellets was counted. The number of fecal pellets is expressed per cage (Table 5).

[7] = test system: colon tract; assay: Inhibitory effect of adenosine receptor antagonist on suppressing action of NECA on Carbachol-stimulated contraction of the colon tract; design: species or system rat; details: for Contraction (%) Mean: Carbachol 0.3 μM + NECA 1 μM = 0%, Carbachol 0.3 μM = 100%; for Inhibition of the suppressing effect of NECA on the contraction (in words): rat colon tract, Carbachol + NECA
Description: The abdomen of a rat under anesthesia with ether was opened, and from the rectum to the cecum was excised therefrom and soaked in ice-cooled Tyrode solution (containing 136 mM NaCl, 2.7 mM KCl, 0.4 mM NaH2PO4.2H2O, 5.6 mM glucose, 11.9 mM NaHCO3, 1 mM MgCl2.6H2O, 1.8 mM CaCl2). Surrounding connective tissues were removed, and the intestinal tract was cut at positions apart by 1.5 cm from the rectum and by 3 cm from the cecum, to give a colon tract of about 3 cm in full length. Both the terminals of the colon tract were pinched respectively with Serrefines (trade name) to which a string had been connected, and the colon tract with the side of the cecum facing upward was immediately suspended in a Magnus tube filled with Tyrode solution previously warmed at 37° C., and then equilibrated by bubbling with a gas (O2/CO2=95/5). The string connected to the Serrefines (trade name) at the side of the cecum was suspended, and the change in the length of the colon tract was detected with an amplifier for strain pressure (Nihon Kohden Corporation).
In the experiment, 3 samples were used.

| SMILES | Urine Volume (g/100 g body weight) ([1]; 3 mg/kg oral) | Urine Volume (g/100 g body weight) ([1]; 10 mg/kg oral) | Diuretic action (comparison in words) ([1]; rat, oral) | The number of fecalpellets/3 rats [2] | Ki [3] [nM] | IC50 [4] [nM] | The number of fecalpellets/3 rats ([5]; 3 mg/kg oral) [fecalpellets/3 rats] | The number of fecalpellets/3 rats ([5]; 10 mg/kg oral) [fecalpellets/3 rats] | Diarrhea ([5]; rat, oral) | Defecation-promoting action (in words) ([5]; rat, oral) | The number of fecalpellets/3 rats ([6]; 3 mg/kg, without KW 6002) [fecalpellets/3 rats] | Contraction (%) Mean ([7]; antagonist 0.1 μM) [%] | Contraction (%) Mean ([7]; antagonist 0.4 μM) [%] | Contraction (%) Mean ([7]; antagonist 1.4 μM) [%] | Contraction (%) Mean ([7]; antagonist 4.4 μM) [%] | Inhibition of the suppressing effect of NECA on the contraction (in words) [7] | Urine Volume (g/100 g body weight) ([1]; 1 mg/kg oral) | The number of fecalpellets/3 rats ([5]; 1 mg/kg oral) [fecalpellets/3 rats] | The number of fecalpellets/3 rats ([6]; KW 3902 0 mg/kg + KW 6002 (1 mg/kg)) [fecalpellets/3 rats] |
| --- | --- | --- | --- | --- | --- | --- | --- | --- | --- | --- | --- | --- | --- | --- | --- | --- | --- | --- | --- |
| Nc1ncc(-c2ccncc2)c(-c2ccco2)n1 [Compound I, 4-(2-Furyl)-5-(4-pyridyl)-2-pyrimidinyl amine] | 0.79 ± 0.09 | 1.23 ± 0.13 | weaker diuretic action than the A1-selective antagonist KW3902 | 19.75 ± 2.50 fecalpellets/3 rats and 20.75 ± 3.15 fecalpellets/3 rats | 660 | 8.4 | 16.33 ± 1.82 | 30.00 ± 2.79 | did not cause diarrhea | evidently higher defecation-promoting action than the A1-selective antagonist KW3902 or the A2a-selective antagonist KW6002 | 34.00 ± 1.00 | 71.5 | 111.0 | 122.0 | 85.9 | inhibited the suppressing effect of NECA on the contraction |  |  |  |
| CCn1c(=O)c2c(nc(/C=C/c3ccc(OC)c(OC)c3)n2C)n(CC)c1=O [KW 6002] | 0.76 ± 0.05 |  |  |  | 22600 |  | 7.00 ± 0.86 |  |  | low defecation-promoting action |  | 5.2 | 1.1 | −2.9 | −3.9 | did not show any inhibitory effect | 0.72 ± 0.07 | 6.67 ± 1.63 | 7.00 ± 1.58 |
